Experimental findings from ChEMBL document CHEMBL4414570, “Indole-Diterpenoids with Protein Tyrosine Phosphatase Inhibitory Activities from the Marine-Derived Fungus Penicillium sp. KFD28” (J Nat Prod, 2019) are described below.

The subject of experiment [1] is SGC-7901. Nature of the experiment: Cytotoxicity against human SGC7901 cells assessed as cell viability incubated for 48 hrs by MTT assay. The experiment is classed as functional, cell-based. In general terms: Tetrazolium dyes change colour on reduction, which living cells bring about.
The test system of experiment [2] is K562. Nature of the experiment: Cytotoxicity against human K562 cells assessed as cell viability incubated for 48 hrs by MTT assay. Type of experiment: functional, cell-based.
Experiment [3] addresses Dual specificity protein phosphatase 3 (Homo sapiens) (UniProt P51452). Nature of the experiment: Inhibition of recombinant human VHR expressed in Escherichia coli using p-nitrophenyl phosphate as substrate preincubated for 15 mins followed by substrate addition and measured after 60 mins.
For experiment [4], the system named is HeLa. Nature of the experiment: Cytotoxicity against human HeLa cells assessed as cell viability incubated for 48 hrs by MTT assay. The experiment is classed as functional, cell-based.
Experiment [5] relates to A549. Nature of the experiment: Cytotoxicity against human A549 cells assessed as cell viability incubated for 48 hrs by MTT assay. Type of experiment: functional, cell-based.
Experiment [6] deals with T1, Tyrosine-protein phosphatase non-receptor type 1 (Homo sapiens, UniProt P18031).
T1 sequence (P18031 whole entry): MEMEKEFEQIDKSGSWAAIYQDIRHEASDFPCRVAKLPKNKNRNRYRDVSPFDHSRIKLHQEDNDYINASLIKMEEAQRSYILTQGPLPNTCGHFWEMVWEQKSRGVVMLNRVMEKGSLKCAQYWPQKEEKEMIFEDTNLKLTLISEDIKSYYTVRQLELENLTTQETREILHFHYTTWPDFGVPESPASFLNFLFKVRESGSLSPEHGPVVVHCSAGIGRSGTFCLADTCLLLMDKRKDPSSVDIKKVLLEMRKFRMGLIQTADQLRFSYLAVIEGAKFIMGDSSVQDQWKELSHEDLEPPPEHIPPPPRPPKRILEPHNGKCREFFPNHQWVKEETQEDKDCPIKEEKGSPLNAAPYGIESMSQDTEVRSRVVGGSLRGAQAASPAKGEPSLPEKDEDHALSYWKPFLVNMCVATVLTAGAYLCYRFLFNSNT
Nature of the experiment: Inhibition of recombinant human PTP1B expressed in Escherichia coli using p-nitrophenyl phosphate as substrate preincubated for 15 mins followed by substrate addition and measured after 60 mins.

The target of experiment [7] is T2, Tyrosine-protein phosphatase non-receptor type 2 (Homo sapiens, UniProt P17706).
T2 sequence (P17706 whole entry): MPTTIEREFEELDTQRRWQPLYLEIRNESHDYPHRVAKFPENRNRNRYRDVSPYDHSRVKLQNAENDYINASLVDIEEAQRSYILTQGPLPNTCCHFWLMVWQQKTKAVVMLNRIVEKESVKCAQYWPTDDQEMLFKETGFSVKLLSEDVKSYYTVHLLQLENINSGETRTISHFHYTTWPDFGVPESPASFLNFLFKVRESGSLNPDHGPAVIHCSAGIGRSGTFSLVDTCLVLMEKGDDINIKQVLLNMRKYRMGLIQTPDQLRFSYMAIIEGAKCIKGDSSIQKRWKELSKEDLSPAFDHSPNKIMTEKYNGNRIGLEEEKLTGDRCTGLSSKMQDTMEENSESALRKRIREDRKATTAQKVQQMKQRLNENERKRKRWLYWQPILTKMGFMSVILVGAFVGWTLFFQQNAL
Nature of the experiment: Inhibition of recombinant human TCPTP expressed in Escherichia coli using p-nitrophenyl phosphate as substrate preincubated for 15 mins followed by substrate addition and measured after 60 mins.

In experiment [8] the target is Receptor-type tyrosine-protein phosphatase S (Homo sapiens, UniProt Q13332). Nature of the experiment: Inhibition of recombinant human PTPsigma expressed in Escherichia coli using p-nitrophenyl phosphate as substrate preincubated for 15 mins followed by substrate addition and measured after 60 mins.

Active and inactive are the calls of the source. The rule behind the calls is not given here.

Dual specificity protein phosphatase 3 (Homo sapiens), sequence (P51452 whole entry, looked up): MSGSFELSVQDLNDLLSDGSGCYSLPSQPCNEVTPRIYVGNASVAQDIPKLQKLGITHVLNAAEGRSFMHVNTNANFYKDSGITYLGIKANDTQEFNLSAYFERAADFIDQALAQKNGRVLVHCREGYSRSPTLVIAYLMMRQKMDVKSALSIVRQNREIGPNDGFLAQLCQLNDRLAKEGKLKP
Receptor-type tyrosine-protein phosphatase S, sequence (Q13332 whole entry): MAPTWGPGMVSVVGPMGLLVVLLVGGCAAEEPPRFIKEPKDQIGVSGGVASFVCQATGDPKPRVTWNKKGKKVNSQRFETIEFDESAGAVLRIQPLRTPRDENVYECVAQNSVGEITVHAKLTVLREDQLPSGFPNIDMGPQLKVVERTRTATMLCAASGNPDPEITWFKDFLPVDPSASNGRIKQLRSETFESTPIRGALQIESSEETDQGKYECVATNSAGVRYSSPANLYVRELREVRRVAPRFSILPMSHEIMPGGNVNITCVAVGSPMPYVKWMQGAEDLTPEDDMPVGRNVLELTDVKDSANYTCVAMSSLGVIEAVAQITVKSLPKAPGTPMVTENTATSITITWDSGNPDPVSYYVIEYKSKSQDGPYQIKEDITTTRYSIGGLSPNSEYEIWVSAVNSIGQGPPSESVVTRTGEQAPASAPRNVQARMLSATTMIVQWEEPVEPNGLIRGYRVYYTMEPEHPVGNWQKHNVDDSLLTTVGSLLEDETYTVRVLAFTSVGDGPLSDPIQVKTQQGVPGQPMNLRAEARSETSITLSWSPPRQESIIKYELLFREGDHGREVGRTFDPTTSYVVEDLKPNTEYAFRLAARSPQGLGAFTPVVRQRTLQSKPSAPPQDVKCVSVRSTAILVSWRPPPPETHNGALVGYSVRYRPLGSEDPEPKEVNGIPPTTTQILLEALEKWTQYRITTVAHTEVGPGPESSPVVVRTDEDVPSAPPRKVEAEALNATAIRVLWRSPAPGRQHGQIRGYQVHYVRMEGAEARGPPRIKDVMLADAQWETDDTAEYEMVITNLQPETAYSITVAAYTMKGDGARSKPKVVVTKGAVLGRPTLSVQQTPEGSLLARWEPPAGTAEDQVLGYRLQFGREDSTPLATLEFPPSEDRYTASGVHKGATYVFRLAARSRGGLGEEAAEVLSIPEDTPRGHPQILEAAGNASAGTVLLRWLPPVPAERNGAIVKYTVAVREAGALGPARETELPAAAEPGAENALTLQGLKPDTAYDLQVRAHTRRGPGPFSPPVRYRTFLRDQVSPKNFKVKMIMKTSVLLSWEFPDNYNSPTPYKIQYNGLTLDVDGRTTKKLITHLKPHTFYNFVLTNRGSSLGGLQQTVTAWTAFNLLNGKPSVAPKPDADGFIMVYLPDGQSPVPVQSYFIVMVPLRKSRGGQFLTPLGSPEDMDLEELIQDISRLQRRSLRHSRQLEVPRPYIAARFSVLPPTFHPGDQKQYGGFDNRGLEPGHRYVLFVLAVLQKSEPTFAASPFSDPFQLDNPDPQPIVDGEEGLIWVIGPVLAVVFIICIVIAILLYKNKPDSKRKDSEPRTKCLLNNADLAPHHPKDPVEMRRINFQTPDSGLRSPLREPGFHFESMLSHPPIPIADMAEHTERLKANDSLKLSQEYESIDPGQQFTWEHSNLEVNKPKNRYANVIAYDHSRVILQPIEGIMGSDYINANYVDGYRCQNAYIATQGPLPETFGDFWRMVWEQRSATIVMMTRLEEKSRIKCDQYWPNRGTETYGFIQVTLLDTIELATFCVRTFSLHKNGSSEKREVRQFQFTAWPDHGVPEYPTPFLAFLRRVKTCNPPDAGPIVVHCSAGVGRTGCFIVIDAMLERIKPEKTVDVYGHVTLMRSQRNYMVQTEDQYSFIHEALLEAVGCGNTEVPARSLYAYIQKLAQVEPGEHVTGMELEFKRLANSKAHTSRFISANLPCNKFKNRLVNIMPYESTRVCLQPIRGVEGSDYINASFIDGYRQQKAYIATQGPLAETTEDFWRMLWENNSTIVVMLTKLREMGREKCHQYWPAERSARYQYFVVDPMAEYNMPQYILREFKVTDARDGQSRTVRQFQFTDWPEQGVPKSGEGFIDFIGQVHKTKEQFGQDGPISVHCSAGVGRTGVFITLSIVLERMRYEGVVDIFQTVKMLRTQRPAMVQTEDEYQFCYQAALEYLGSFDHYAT

Turning to `CC(C)(O)[C@@H]1CC=C2[C@H](CC[C@@]3(C)[C@H]2CC[C@H]2Cc4c([nH]c5ccccc45)[C@@]23C)O1`, the result in experiment [1], in experiment [2], in experiment [4] and in experiment [5] was inactive. Also, the inhibition result in experiment [3] is “inactive”.

`CC(C)(O)[C@H]1O[C@H]2CC[C@@]3(C)[C@@](O)(CC[C@H]4C(=O)c5c([nH]c6ccccc56)[C@@]43C)C2=CC1=O`: the result in experiment [1], in experiment [2], in experiment [4] and in experiment [5] was inactive. In addition, the half-maximal inhibitory concentration (IC50) (commonly the midpoint of a concentration-inhibition curve) amounted to 23 µM in experiment [6] and 35 µM in experiment [7]. The inhibition result in experiment [3] is “inactive”.

In the case of `CC1(C)C[C@H]2[C@@H]3C(=O)CC[C@]4(C)[C@@]5(C)c6[nH]c7ccccc7c6C[C@@H]5CC[C@@]34O[C@@]2(O)[C@@H]1O`, the result in experiment [1], in experiment [2], in experiment [4] and in experiment [5] was inactive. Further, the IC50 amounted to 38 µM in experiment [8] and 14 µM in experiment [6]. For the same compound, in experiment [3], the inhibition result was “inactive”.

Take `CC(C)(O)[C@@H]1OC(=O)C=C2[C@H](CC[C@@]3(C)[C@@]2(O)CC[C@H]2Cc4c([nH]c5ccccc45)[C@@]23C)O1`: the outcome in experiment [1], in experiment [2], in experiment [4] and in experiment [5] was inactive. In addition, the inhibition result in experiment [3] was “inactive”.

As to `CC1(C)O[C@@]23CC[C@@]4(C)[C@@](O)(CC[C@H]5Cc6c([nH]c7ccccc67)[C@@]54C)C2=CC(=O)[C@H]1O3`, the outcome in experiment [1], in experiment [2], in experiment [4] and in experiment [5] was inactive. The inhibition entry in experiment [3] is “inactive”.

For the compound `CC1(C)CC2=C(Cc3cc4c(cc32)NC(=O)[C@@]2(C)[C@@H](CC[C@@]3(O)C5=CC(=O)[C@@H](C(C)(C)O)O[C@H]5CC[C@@]32C)CC4=O)C(C)(C)O1`, the result in experiment [1], in experiment [2], in experiment [4] and in experiment [5] was inactive. In addition, the inhibition result in experiment [3] is “inactive”.

As for `CC(C)(O)[C@@H]1CC[C@]2(C=O)[C@H](CC[C@@]3(C)[C@H]2CC[C@H]2Cc4c([nH]c5ccccc45)[C@@]23C)O1`, the result in experiment [1], in experiment [2], in experiment [4] and in experiment [5] was inactive. In experiment [3], the inhibition result was “inactive”.

Consider `CC1(C)C=C2c3cc4[nH]c5c(c4cc3C[C@@H]2C(C)(C)O1)C[C@@H]1CC[C@@]2(O)C3=CC(=O)[C@@H](C(C)(C)O)O[C@@]3(O)CC[C@]2(C)[C@@]51C`, for which the outcome in experiment [1], in experiment [2], in experiment [4] and in experiment [5] was inactive. Also, in experiment [3], the inhibition result was “inactive”.

In the case of `CC1(C)CC2=C(Cc3cc4c5c([nH]c4cc32)[C@@]2(C)[C@@H](CC[C@@]3(O)C4=CC(=O)[C@@H](C(C)(C)O)O[C@@]4(O)CC[C@@]32C)C5)C(C)(C)O1`, the outcome in experiment [1], in experiment [2], in experiment [4] and in experiment [5] was inactive. Also, in experiment [3], the inhibition entry was “inactive”.

As to `CC(C)(O)[C@H]1O[C@H]2CC[C@@]3(C)[C@@](O)(CC[C@@H](CC(=O)c4ccccc4N)[C@]3(C)C(=O)O)C2=CC1=O`, the result in experiment [1], in experiment [2], in experiment [4] and in experiment [5] was inactive. For the same compound, the inhibition entry in experiment [3] was “inactive”.

Regarding `CC(C)(O)[C@H]1O[C@@]2(O)CC[C@@]3(C)C(=CC[C@H]4Cc5c([nH]c6ccccc56)[C@@]43C)C2=CC1=O`, the outcome in experiment [1], in experiment [2], in experiment [4] and in experiment [5] was inactive. In addition, the values for the half-maximal inhibitory concentration (IC50) in experiment [6] and in experiment [7] were 13 µM and 37 µM, respectively. Further, the inhibition result in experiment [3] is “inactive”.

In the case of `C[C@]12CC[C@@H]3OCC(=O)C=C3[C@]1(O)CC[C@H]1Cc3c([nH]c4ccccc34)[C@@]12C`, the outcome in experiment [1], in experiment [2], in experiment [4] and in experiment [5] was inactive. For the same compound, the IC50 in experiment [6] was determined as 27 µM. Further, the inhibition result in experiment [3] is “inactive”.
